Legend:
[1] = target: Sodium-dependent dopamine transporter (Homo sapiens, UniProt Q01959); experiment: Ability of compound to inhibit dopamine uptake of receptor was determined; details: read-out: Log 1/Ki (converted)
[2] = Binding affinity towards dopamine receptor D3 was determined; design: species or system Homo sapiens
[3] = Binding affinity towards dopamine receptor D4 was determined; design: species or system Homo sapiens
[4] = Binding affinity towards dopamine receptor D2 was determined; design: species or system Homo sapiens
[5] = Binding affinity of compound towards dopamine receptor D3 was determined; design: species or system Homo sapiens
[6] = Binding affinity of compound towards dopamine receptor D2 was determined; design: species or system Homo sapiens
[7] = Binding affinity to displace [3H]spiperone from dopamine receptor D2 was determined; design: species or system Homo sapiens
D(2) dopamine receptor = D(2) dopamine receptor (Homo sapiens, UniProt P14416)
Description: Binding affinity towards human dopamine receptor D2 was determined by using [3H]spiperone as radioligand

D(4) dopamine receptor = target: T1, D(4) dopamine receptor (Homo sapiens, UniProt P21917); experiment: biochemical
T1 sequence (P21917 whole entry): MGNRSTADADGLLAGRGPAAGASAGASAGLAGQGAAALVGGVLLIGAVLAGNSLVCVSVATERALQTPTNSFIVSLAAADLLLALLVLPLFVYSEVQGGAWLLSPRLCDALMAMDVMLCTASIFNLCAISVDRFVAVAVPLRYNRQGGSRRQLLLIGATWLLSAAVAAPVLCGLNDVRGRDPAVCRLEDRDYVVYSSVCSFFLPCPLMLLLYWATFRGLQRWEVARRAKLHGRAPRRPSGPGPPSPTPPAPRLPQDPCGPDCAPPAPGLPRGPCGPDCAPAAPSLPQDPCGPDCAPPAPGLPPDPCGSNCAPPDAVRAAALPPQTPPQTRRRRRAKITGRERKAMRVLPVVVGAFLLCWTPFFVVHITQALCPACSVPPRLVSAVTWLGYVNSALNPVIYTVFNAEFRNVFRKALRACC
Description: Binding affinity towards human dopamine receptor D4 expressed in CHO cells was determined by using [3H]thymidine as radioligand

Chain of D(2) dopamine receptor (P14416 whole entry): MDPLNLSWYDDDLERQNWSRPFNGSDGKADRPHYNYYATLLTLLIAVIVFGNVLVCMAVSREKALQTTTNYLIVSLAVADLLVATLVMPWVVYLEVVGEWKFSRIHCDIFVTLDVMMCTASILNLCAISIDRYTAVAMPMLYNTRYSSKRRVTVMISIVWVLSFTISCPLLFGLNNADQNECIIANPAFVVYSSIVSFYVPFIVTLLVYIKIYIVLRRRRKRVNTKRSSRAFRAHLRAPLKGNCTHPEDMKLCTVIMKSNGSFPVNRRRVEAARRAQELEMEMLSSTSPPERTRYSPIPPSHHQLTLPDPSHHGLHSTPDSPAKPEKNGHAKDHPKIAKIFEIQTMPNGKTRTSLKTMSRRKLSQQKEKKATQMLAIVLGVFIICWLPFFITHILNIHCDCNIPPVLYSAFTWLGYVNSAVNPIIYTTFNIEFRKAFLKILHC
Chain of Sodium-dependent dopamine transporter (Q01959 whole entry): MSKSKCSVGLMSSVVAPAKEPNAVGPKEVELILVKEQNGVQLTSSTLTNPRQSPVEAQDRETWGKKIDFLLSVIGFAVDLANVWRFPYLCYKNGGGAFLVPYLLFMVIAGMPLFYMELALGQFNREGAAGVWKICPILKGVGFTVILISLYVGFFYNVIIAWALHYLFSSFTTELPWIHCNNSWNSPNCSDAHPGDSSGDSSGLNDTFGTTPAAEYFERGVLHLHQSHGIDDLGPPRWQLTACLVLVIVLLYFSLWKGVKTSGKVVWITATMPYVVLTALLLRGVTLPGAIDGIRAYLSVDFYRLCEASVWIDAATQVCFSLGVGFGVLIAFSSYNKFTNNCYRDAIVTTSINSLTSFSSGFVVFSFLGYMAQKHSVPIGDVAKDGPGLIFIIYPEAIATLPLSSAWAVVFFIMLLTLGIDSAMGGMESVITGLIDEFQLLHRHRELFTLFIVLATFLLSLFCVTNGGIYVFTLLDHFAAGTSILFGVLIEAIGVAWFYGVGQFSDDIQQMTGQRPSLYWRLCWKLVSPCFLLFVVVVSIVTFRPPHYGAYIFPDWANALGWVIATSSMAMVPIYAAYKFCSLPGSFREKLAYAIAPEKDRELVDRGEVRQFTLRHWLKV

In the case of `Fc1ccc(C(OC2CC3CCC(C2)N3CCCOc2ccccc2)c2ccc(F)cc2)cc1` (stereo not given), the Ki [1] is reported as 229 nM.
For `O=C(NCCN1C2CCC1CC(OC(c1ccc(F)cc1)c1ccc(F)cc1)C2)c1cccnc1` (stereo not given), the Ki [1] was 14.1 nM.
With `O=C(NCCN1C2CCC1CC(OC(c1ccc(F)cc1)c1ccc(F)cc1)C2)c1ccccc1` (stereo not given) the Ki [1] was 6.46 nM.
For `Fc1ccc(C(OC2CC3CCC(C2)N3CCOCCN2CCOCC2)c2ccc(F)cc2)cc1` (stereo not given), the Ki [1] was 661 nM.
With `O=C(CCCN1CCC(c2ccc(Cl)cc2)CC1)c1ccc(F)cc1` the “Log 1/Ki” value [2] was 7.34, the “Log 1/Ki” value [3] was 7.59 and the “Log 1/Ki” value [4] was 7.81.
In the case of `O=C(CCCN1CCC(CO)(c2ccc(Cl)cc2)CC1)c1ccc(F)cc1`, the “Log 1/Ki” value [2] is reported as 6.96, the “Log 1/Ki” value [3] is reported as 7.11 and the “Log 1/Ki” value [4] is reported as 7.81.
In the case of `O=C(CCCN1CCC(CO)(c2ccc(Cl)cc2)C1)c1ccc(F)cc1` (stereo not given), the “Log 1/Ki” value [2] is reported as 6.78, the “Log 1/Ki” value [3] is reported as 7.62 and the “Log 1/Ki” value [4] is reported as 7.36.
With `CN1CCN(C2=Cn3c(/C=N/O)ccc3Sc3ccccc32)CC1` the “Log 1/Ki” value [5] was 5.37.
For `Cn1c(=O)c2c(nc3nc(NCCCN4CCN(c5cccc(Cl)c5)CC4)ccn32)n(C)c1=O`, the “Log 1/Ki” value [6] was 7.03.
In the case of `Cc1ccc(CC2(O)CCN(CCCC(=O)c3ccc(F)cc3)CC2)cc1`, the “Log 1/Ki” value [2] is reported as 8.05, the “Log 1/Ki” value [3] is reported as 7.23 and the “Log 1/Ki” value [4] is reported as 8.1.
In the case of `Cn1c(=O)c2c(nc3nc(NCCCN4CCN(c5ccccc5)CC4)ccn32)n(C)c1=O`, the “Log 1/Ki” value [6] is reported as 6.37.
For `CCCc1cc(OC)c(OC)c(C(=O)NCC2CCCN2CC)c1O` (stereo not given), the “Log 1/Ki” value [7] was 8.89.
In the case of `Cn1c2c(c(=O)n(C)c1=O)N1CC(Br)=C(NCCN3CCN(c4ccccc4)CC3)NC1N2` (stereo not given), the “Log 1/Ki” value [6] is reported as 5.9.
With `COc1ccccc1N1CCN(CCCNc2nc3nc4c(c(=O)n(C)c(=O)n4C)n3cc2Br)CC1` the “Log 1/Ki” value [6] was 6.49.
With `COc1ccccc1N1CCN(CCNC2=CCN3c4c(n(C)c(=O)n(C)c4=O)NC3N2)CC1` (stereo not given) the “Log 1/Ki” value [6] was 5.88.
In the case of `Cn1c2c(c(=O)n(C)c1=O)N1CC(Br)=C(NCCN3CCN(c4cccc(Cl)c4)CC3)NC1N2` (stereo not given), the “Log 1/Ki” value [6] is reported as 6.78.
In the case of `Cn1c(=O)c2c(nc3nc(NCCCN4CCN(c5ccccc5)CC4)c(Br)cn32)n(C)c1=O`, the “Log 1/Ki” value [6] is reported as 6.38.
With `CN(CCCC(=O)c1ccc(F)cc1)CCC(O)c1ccc(Cl)cc1` (stereo not given) the “Log 1/Ki” value [2] was 6.79, the “Log 1/Ki” value [3] was 6.72 and the “Log 1/Ki” value [4] was 7.58.
With `CCN1CCCC1CNC(=O)c1cc(CCCF)cc(OC)c1OC` (stereo not given) the “Log 1/Ki” value [7] was 8.36.
For `CCN1CCCC1CNC(=O)c1cc(CCF)cc(OC)c1OC` (stereo not given), the “Log 1/Ki” value [7] was 8.28.
In the case of `CCN1CCCC1CNC(=O)c1c(O)c(CCCF)cc(OC)c1OC` (stereo not given), the “Log 1/Ki” value [7] is reported as 9.1.
With `Cn1c(=O)c2c(nc3nc(NCCCN4CCN(c5cccc(Cl)c5)CC4)c(Br)cn32)n(C)c1=O` the “Log 1/Ki” value [6] was 6.58.
With `COc1ccccc1N1CCN(CCNC2=C(Br)CN3c4c(n(C)c(=O)n(C)c4=O)NC3N2)CC1` (stereo not given) the “Log 1/Ki” value [6] was 6.65.
For `CCCc1cc(OC)c(OC)c(C(=O)NCC2CCCN2CC)c1` (stereo not given), the “Log 1/Ki” value [7] was 8.16.
For `COc1ccccc1N1CCN(CCCCNC(=O)c2ccc(-c3ccc(C(C)=O)cc3)cc2)CC1`, the “Log Ki” value [2] was -9.5.
With `O=C(NCN1CCN(c2ccccc2Cl)CC1)c1cccc(Cl)c1` the Ki (D(2) dopamine receptor) was 363 nM.
With `COc1ccccc1N1CCN(CNC(=O)c2cccc(C)c2)CC1` the Ki (D(2) dopamine receptor) was 2450 nM and the Ki (D(4) dopamine receptor) was 12.9 nM.
With `O=C(NCN1CCN(c2ccccc2Cl)CC1)c1ccc(Cl)cc1` the Ki (D(2) dopamine receptor) was 66.1 nM and the Ki (D(4) dopamine receptor) was 8.32 nM.
In the case of `Cc1cccc(C(=O)NCN2CCN(c3ccccc3Cl)CC2)c1`, the Ki (D(2) dopamine receptor) is reported as 468 nM and the Ki (D(4) dopamine receptor) is reported as 15.8 nM.
`O=C(NCN1CCN(c2ccccc2Cl)CC1)c1ccccc1` gave a Ki (D(2) dopamine receptor) of 178 nM and a Ki (D(4) dopamine receptor) of 107 nM.
`Cc1ccc(C(=O)NCN2CCN(c3ccccc3C#N)CC2)cc1` gave a Ki (D(2) dopamine receptor) of 380 nM and a Ki (D(4) dopamine receptor) of 1.2 nM.
Compound `O=C(CCN1[C@@H]2CC[C@H]1C[C@@H](OC(c1ccc(F)cc1)c1ccc(F)cc1)C2)Nc1ccccc1` has a Ki [1] of 5.01 nM.
With `NCCN1[C@@H]2CC[C@H]1C[C@@H](OC(c1ccc(F)cc1)c1ccc(F)cc1)C2` the Ki [1] was 25.7 nM.
In the case of `CCN1CCCC1CNC(=O)c1cc(Br)cc(OC)c1OC` (stereo not given), the “Log 1/Ki” value [7] is reported as 9.12.
`Fc1ccc(C(OC2CC3CCC(C2)N3CCNCc2ccccc2)c2ccc(F)cc2)cc1` (stereo not given) gave a Ki [1] of 8.13 nM.
Work on `Fc1ccc(C(OC2CC3CCC(C2)N3CCOCc2ccccc2)c2ccc(F)cc2)cc1` (stereo not given) yielded a Ki [1] of 22.4 nM.
`OCCOCCN1C2CCC1CC(OC(c1ccc(F)cc1)c1ccc(F)cc1)C2` (stereo not given) showed a Ki [1] of 49 nM.
Compound `Fc1ccc(C(OC2CC3CCC(C2)N3CCOCc2cccs2)c2ccc(F)cc2)cc1` (stereo not given) has a Ki [1] of 18.6 nM.
With `O=C(CCCN1CCC(CCO)(c2ccc(Cl)cc2)C1)c1ccc(F)cc1` (stereo not given) the “Log 1/Ki” value [2] was 7.49, the “Log 1/Ki” value [3] was 6.71 and the “Log 1/Ki” value [4] was 7.64.
In the case of `Cn1c2c(c(=O)n(C)c1=O)N1CC=C(NCCN3CCN(c4cccc(Cl)c4)CC3)NC1N2` (stereo not given), the “Log 1/Ki” value [6] is reported as 6.74.
In the case of `CCN1CCCC1CNC(=O)c1c(O)c(CCF)cc(OC)c1OC` (stereo not given), the “Log 1/Ki” value [7] is reported as 9.11.
`N#Cc1ccccc1N1CCN(CNC(=O)c2ccccc2)CC1` gave a Ki (D(2) dopamine receptor) of 3020 nM and a Ki (D(4) dopamine receptor) of 24 nM.
For `COc1ccccc1N1CCN(CCCCNC(=O)c2ccc(-c3ccc(S(C)(=O)=O)cc3)cc2)CC1`, the “Log Ki” value [2] was -9.5.
With `COc1ccccc1N1CCN(CCCNc2ccn3c(n2)nc2c3c(=O)n(C)c(=O)n2C)CC1` the “Log 1/Ki” value [6] was 5.93.
Work on `COc1ccccc1N1CCN(CNC(=O)c2ccccc2)CC1` yielded a Ki (D(2) dopamine receptor) of 2450 nM and a Ki (D(4) dopamine receptor) of 30.9 nM.
With `COc1ccccc1N1CCN(CNC(=O)c2cccc(Cl)c2)CC1` the Ki (D(2) dopamine receptor) was 1450 nM.
Work on `COc1ccccc1N1CCN(CNC(=O)c2ccc(Cl)cc2)CC1` yielded a Ki (D(2) dopamine receptor) of 269 nM and a Ki (D(4) dopamine receptor) of 3.47 nM.
Compound `N#Cc1ccccc1N1CCN(CNC(=O)c2cccc(Cl)c2)CC1` has a Ki (D(2) dopamine receptor) of 2290 nM and a Ki (D(4) dopamine receptor) of 5.25 nM.
`N#Cc1ccccc1N1CCN(CNC(=O)c2ccc(Cl)cc2)CC1` gave a Ki (D(2) dopamine receptor) of 603 nM and a Ki (D(4) dopamine receptor) of 3.89 nM.
Compound `COc1ccccc1N1CCN(CNC(=O)c2ccc(C)cc2)CC1` has a Ki (D(2) dopamine receptor) of 174 nM and a Ki (D(4) dopamine receptor) of 3.39 nM.
Compound `Cc1ccc(C(=O)NCN2CCN(c3ccccc3Cl)CC2)cc1` has a Ki (D(2) dopamine receptor) of 49 nM and a Ki (D(4) dopamine receptor) of 219 nM.
In the case of `COc1ccc(OC)c(N2CCN(CCCCNC(=O)c3ccc(Br)cc3)CC2)c1`, the “Log Ki” value [2] is reported as -8.5.
For `O=C(NCCCCN1CCN(c2ccccc2)CC1)c1ccc(Br)cc1`, the “Log Ki” value [2] was -8.2.
With `COc1ccccc1N1CCN(CCCCNC(=O)c2ccc(Br)cc2)CC1` the “Log Ki” value [2] was -9.3.
For `COc1ccccc1N1CCN(CCCCNC(=O)c2ccc(-c3ccc(N)cc3)cc2)CC1`, the “Log Ki” value [2] was -9.7.
With `CCN1CCCC1CNC(=O)c1cccc(OC)c1OC` (stereo not given) the “Log 1/Ki” value [7] was 7.18.
